# Data reported in US20240352073A1, “BICYCLIC PEPTIDE INHIBITORS OF INTERLEUKIN-23 RECEPTOR” (Janssen Biotech, Inc., priority 2021, published 2024).
# Where two headings read alike, the source gives them in different places. Where a SMILES comes first, the peptide text is derived from it. Bridges are numbered along the chain shown (N, C = ends). [ ]: non-standard residue; d: D form. The star is where a group is joined. Me3N+(CH2)2O(CH2)2O(CH2)2CO = C[N+](C)(C)CCOCCOCCC(=O)*; Trp(7-Me) = Cc1cccc2c(C[C@H](N)C(=O)O)c[nH]c12; 2Nal = N[C@@H](Cc1ccc2ccccc2c1)C(=O)O; AEF = NCCOc1ccc(C[C@H](N)C(=O)O)cc1; 3Pal = N[C@@H](Cc1cccnc1)C(=O)O; Aad = N[C@@H](CCCC(=O)O)C(=O)O; Lys(Me) = CNCCCC[C@H](N)C(=O)O; Pen = CC(C)(S)[C@H](N)C(=O)O; Thp = NC1(C(=O)O)CCOCC1; X1 = C[N+](C)(C)CCCCC*; Sar = CNCC(=O)O
# Experiments:
# [1] = target: T1, peripheral blood mononuclear cells (PBMCs) stimulated with IL-23 (Homo sapiens, UniProt Q5VWK5); assay: PBMC pSTAT3 assay; assay type: cell-based; conditions: PBMCs from healthy donors; IL-23 5 ng/mL, 30 minutes; phosphorylated STAT3 in lysates
# T1 sequence (Q5VWK5 24-629): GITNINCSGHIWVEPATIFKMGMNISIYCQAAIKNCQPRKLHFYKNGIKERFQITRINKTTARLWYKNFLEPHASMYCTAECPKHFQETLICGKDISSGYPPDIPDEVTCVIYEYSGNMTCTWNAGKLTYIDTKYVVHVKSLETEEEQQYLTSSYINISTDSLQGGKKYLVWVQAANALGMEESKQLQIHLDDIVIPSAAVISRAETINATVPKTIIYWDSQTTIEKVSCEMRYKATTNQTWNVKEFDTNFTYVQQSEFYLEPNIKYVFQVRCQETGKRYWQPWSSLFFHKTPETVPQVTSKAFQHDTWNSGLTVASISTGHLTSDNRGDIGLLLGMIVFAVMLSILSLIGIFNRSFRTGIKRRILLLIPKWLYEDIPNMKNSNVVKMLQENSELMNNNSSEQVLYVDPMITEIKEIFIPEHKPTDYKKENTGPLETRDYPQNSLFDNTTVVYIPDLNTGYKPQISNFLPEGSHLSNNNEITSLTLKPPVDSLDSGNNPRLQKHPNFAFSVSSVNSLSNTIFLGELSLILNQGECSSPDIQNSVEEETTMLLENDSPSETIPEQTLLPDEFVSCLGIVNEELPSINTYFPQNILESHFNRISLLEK
# Experimental: Cryopreserved peripheral blood mononuclear cells (PBMCs) from healthy donors were thawed and washed twice in ImmunoCult-XF T cell expansion medium (XF-TCEM) supplemented with CTL anti-aggregate wash. The cells were counted, resuspended at 2×10^5 cells per mL XF-TCEM supplemented with penicillin/streptomycin and 100 ng/mL […] (BioLegend, 579404), and cultured in tissue culture flasks coated with anti-CD3 (eBioscience, 16-0037-85 or BD Pharmingen, 555329) at 37° C. in 5% C02. On day 4 of culture, PBMCs were collected, washed twice in RPMI-1640 supplemented with 0.1% BSA (RPMI-BSA), and incubated in RPMI-BSA in upright tissue culture flasks for 4 hours at 37° C. in 5% C02. Following this ‘starvation,’ a total of 6×10^4 cells in 30 μL RPMI-BSA was transferred into each well of a 384-well plate pre-spotted with peptide or DMSO. The cells were incubated for 30 minutes prior to the addition of IL-23 at a final concentration of 5 ng/mL. The cells were stimulated with cytokine for 30 minutes at 37° C. in 5% C02, transferred onto ice for 10 minutes, and lysed. Cell lysates were stored at −80° C. until phosphorylated STAT3 was measured using the phospho-STAT panel kit (Meso Scale Discovery, K15202D). The results produced with PBMCs are provide in Table 5 below for several from Examples along with data from the IL23R Reporter Assays utilizing HEK293 cells described above. […]
# IL-23R = target: T2, IL-23R (Homo sapiens, UniProt Q5VWK5); assay: IL-23R reporter assay (HEK293, STAT-inducible luciferase); assay type: cell-based; conditions: Table 4; HEK293 cells with IL-23R, IL-12Rβ1 and STAT-inducible luciferase reporter, stimulated with IL-23
# T2 construct: host or cells: HEK293
# T2 sequence (Q5VWK5 24-629): T1 sequence (Q5VWK5 24-629)
# Experimental: Example 4. IL-23R Reporter Assay
# Compounds were serially diluted in 100% (v/v) DMSO) and plated using an Echo acoustic dispenser (Labcyte) into 1536-well non-treated black assay plates (Corning #9146). […] After 5 h at 37° C., 5% CO2, 95% relative humidity, cells were placed at 20° C. and treated with BioGlo reagent (Promega) according to the manufacturer's instructions. Luminescence was measured on a Pherastar FSX (BMG LabTech). […] Where multiple measurements have been made the average is shown with the number of replicates indicated in parenthesis following the IC50 values.
# [2] = the molecule shown is the open-chain precursor, 20-membered ring
compound,measurement,setting,value
CC(=O)N[C@H](CCCCN)C(=O)N[C@@H]1C(=O)N[C@@H](CCC(N)=O)C(=O)N[C@@H]([C@@H](C)O)C(=O)N[C@@H](Cc2c[nH]c3ccccc23)C(=O)N[C@@H](CCC(N)=O)C(=O)N[C@H](C(=O)N[C@@H](Cc2ccc(OCCNC(C)=C3C(=O)CC(C)(C)CC3=O)cc2)C(=O)N[C@@H](Cc2ccc3ccccc3c2)C(=O)NC2(C(=O)N[C@@H](CCC(=O)O)C(=O)N[C@@H](CC(N)=O)C(=O)NCCC(N)=O)CCOCC2)C(C)(C)SSC1(C)C,"ring closure, yield after HPLC","from Ac-dLys-Pen-Gln-Thr-Trp-Gln-Pen-AEF(Dde)-2Nal-THP-Glu-Asn-bAla-NH2?, disulfide bond, 20-membered ring, I2/AcOH, H2O/MeCN 1:1, 0.5 mM",48%
6Ahx(2)-Abu(1)-N-T-W-Q-C(1)-AEF-2Nal-THP-E(2)-N-3Pya-Sar-CONH2,"ring closure, yield after HPLC","amide bond, 29-membered ring, PyBOP/DIEA, DMF, 5.0 mM",5%
7Ahp(2)-Pen(3)-N-T-7MeW-K(Ac)-Pen(3)-AEF-2Nal-THP-E(2)-N-3Pya-Sar-CONH2,"ring closure, yield after HPLC","amide bond, 30-membered ring, PyBOP/DIEA, DMF, 5.0 mM",13%
CC(=O)N(C)CCCC[C@@H]1NC(=O)[C@H](Cc2c[nH]c3c(C)cccc23)NC(=O)[C@H]([C@@H](C)O)NC(=O)[C@H](CC(=O)N(C)C)NC(=O)[C@H]2NC(=O)[C@H](NC(=O)CCOCCOCC[N+](C)(C)C)CCCCNC(=O)CCC[C@@H](C(=O)N[C@@H](CC(N)=O)C(=O)N[C@@H](Cc3cccnc3)C(=O)N(C)CC(=O)N(C)C)NC(=O)C3(CCOCC3)NC(=O)[C@H](Cc3ccc4ccccc4c3)NC(=O)[C@H](Cc3ccc(OCCCCC[N+](C)(C)C)cc3)NC(=O)[C@@H](NC1=O)C(C)(C)SSC2(C)C [Compd 319] ({Me3N+(CH2)2O(CH2)2O(CH2)2CO}-[dK][Pen]D(NMe2)T[Trp(7-Me)][Lys(Me)](Ac)[Pen]Y(X1)[2Nal][Thp][Aad]N[3Pal][Sar]-NMe2; lactam 1-11; disulfide 2-7),IC50,[1],0.0079 nM
"CC(=O)NCCCC[C@@H]1NC(=O)[C@H](Cc2c[nH]c3ccccc23)NC(=O)[C@H]([C@@H](C)O)NC(=O)[C@H]2CCC(=O)NCCOc3ccc(cc3)C[C@@H](C(=O)N[C@@H](Cc3ccc4ccccc4c3)C(=O)NC3(C(=O)N[C@@H](CCCCNC(C)=O)C(=O)N[C@@H](CO)C(=O)N[C@@H](Cc4cccnc4)C(=O)N(C)CC(N)=O)CCOCC3)NC(=O)[C@@H](NC1=O)C(C)(C)SSC(C)(C)[C@H](NC(C)=O)C(=O)N2 [Example 4, Ac-[Pen]-E-T-W-[Lys(Ac)]-[Pen]-[Phe(4-(2-aminoethoxy))]-[2Nal]-[THP]-[Lys(Ac)]-S-[3Pal]-[Sarc]-NH2] (Ac-[Pen][dE]TWK(Ac)[Pen][AEF][2Nal][Thp]K(Ac)S[3Pal][Sar]-NH2; disulfide 1-6; lactam 2-7)",IC50,IL-23R,330 nM
"CC(=O)NCCCC[C@@H]1NC(=O)[C@H](Cc2c[nH]c3c(C)cccc23)NC(=O)[C@H]([C@@H](C)O)NC(=O)[C@H](CC(N)=O)NC(=O)[C@H]2NC(=O)CCCCCCNC(=O)CC[C@@H](C(=O)N[C@@H](CC(N)=O)C(=O)N(C)[C@H](Cc3ccc(O)cc3)C(N)=O)NC(=O)C3(CCOCC3)NC(=O)[C@H](Cc3ccc4ccccc4c3)NC(=O)[C@H](Cc3ccc(OCCN)cc3)NC(=O)[C@@H](NC1=O)C(C)(C)SSC2(C)C [Example 25, [7AminoHeptanoicAcid]-[Pen]-N-T-[W(7-Me)]-[Lys(Ac)]-[Pen]-[Phe(4-(2-aminoethoxy))]-[2Nal]-[THP]-E-N-[(D)NMeTyr]-NH2]",IC50,IL-23R,830 nM
"CC(=O)NCCCC[C@@H]1NC(=O)[C@H](Cc2c[nH]c3c(C)cccc23)NC(=O)[C@H]([C@@H](C)O)NC(=O)[C@H](CC(N)=O)NC(=O)[C@@H](NC(=O)CCCCCCN)C(C)(C)SSC(C)(C)[C@@H](C(=O)N[C@H]2Cc3ccc(cc3)OCCNC(=O)CC[C@@H](C(=O)N[C@@H](CC(N)=O)C(=O)N[C@@H](Cc3cccnc3)C(=O)N(C)CC(N)=O)NC(=O)C3(CCOCC3)NC(=O)[C@H](Cc3ccc4ccccc4c3)NC2=O)NC1=O [Example 137, [7AminoHeptanoicAcid]-[Pen]-N-T-[W(7-Me)]-[Lys(Ac)]-[Pen]-[Phe(4-(2-aminoethoxy))]-[2Nal]-[THP]-E-N-[3Pal]-[Sarc]-NH2]",IC50,IL-23R,430 nM
"CC(=O)NCCCC[C@@H]1NC(=O)[C@H](Cc2c[nH]c3c(C)cccc23)NC(=O)[C@H]([C@@H](C)O)NC(=O)[C@H](CC(N)=O)NC(=O)[C@@H](NC(=O)CCCCCCN)C(C)(C)SSC(C)(C)[C@@H](C(=O)N[C@H]2Cc3ccc(cc3)OCCNC(=O)CC[C@@H](C(=O)N[C@@H](CC(N)=O)C(=O)NC3(C(N)=O)CCOCC3)NC(=O)C3(CCOCC3)NC(=O)[C@H](Cc3ccc4ccccc4c3)NC2=O)NC1=O [Example 139, [7AminoHeptanoic Acid]-[Pen]-N-T-[W(7-Me)]-[Lys(Ac)]-[Pen]-[Phe(4-(2-aminoethoxy))]-[2Nal]-[THP]-E-N-[THP]-NH2]",IC50,IL-23R,> 16600 nM
Ac-O2R-Pen-Gln-Thr-Trp-Gln-Pen-Phe[4-(2-aminoethoxy)]-2Nal-THP-O2R-Asn-bAla-NH2,"ring closure, yield after HPLC","the molecule shown is the open-chain precursor, disulfide bond, 20-membered ring, I2/AcOH, then Boc2O/DIEA, H2O/MeCN, 0.55 mM, 2 steps",40%
Ac-Pen-Glu-Thr-Trp_7Me-Lys(Ac)-Pen-Phe_4_2ae-2Nal-THP-Lys(Ac)-Asn-His-Sar-NH2,"ring closure, yield after HPLC","the molecule shown is the open-chain precursor, disulfide bond, 20-membered ring, I2/MeOH, MeCN/H2O 20:80, 1.0 mM, with chain assembly",30%
H-6Ahx-Abu(4-Cl)-Asn-Thr-Trp-Gln-Cys-AEF-2Nal-THP-Glu-Asn-3Pya-Sar-NH2?,"ring closure, isolated yield","[2]; thioether bond, NaI/EDTA/Na2CO3, DMF, 1.07 mM",21%
H-7Ahp-Pen-Asn-Thr-7MeTrp-Lys(Ac)-Pen-AEF-2Nal-THP-Glu-Asn-3Pya-Sar-NH2,"ring closure, isolated yield","[2]; disulfide bond, I2/MeOH, MeCN/H2O 30:70, 1.0 mM",30.3%
H-PEG2-Pen-Asn-Thr-7MeTrp-Lys(Ac)-Pen-AEF(Dde)-2Nal-THP-hGlu-Asn-3Pya-Sar-NH2,"ring closure, isolated yield","[2]; disulfide bond, I2/MeOH, H2O/MeCN 1:1, 0.46 mM",32%
McCO-Glu-Pen-N-T-7MeW-K(Ac)-Pen-AEF-2Nal-THP—K(Ac)—N-3Pva-Sar-CONH2,"ring closure, yield after HPLC","amide bond, 24-membered ring, HATU/DIEA, DMF, 0.24 mM, 2 steps",10%
McCO-k(2)-Pen(3)-O-T-W-Q-Pen(3)-AEF-2Nal-THP-E(2)-N-bAla-CONH2,"ring closure, yield after HPLC","amide bond, 29-membered ring, HATU/DIEA, then N2H4, DMF, […], 2 steps",49%
PEG2(2)-Pen(3)-N-T-7MeW-K(Ac)-Pen(3)-AEF-2Nal-THP-hE(2)-N-3Pya-Sar-CONH2,"ring closure, yield after HPLC","amide bond, 32-membered ring, HATU/DIEA, then N2H4, DMF, 4.8 mM, 2 steps",14%
"ac-Pen(1:3)-Dap(2:3)-T-Trp 7Me-Lvs Ac-Pen(1:3)-Phe 4 2ae(3:3)-Nal-THP-Lys Ac—N—H-Sar-am-PEG4DA(x,2:1,3:2)","ring closure, yield after HPLC","crosslinker bond, 39-membered ring, PEG4DA-NHS/DIEA, DMF, 1.0 mM",50%
ac-Pen(1:3)-E(2:3)-T-Trp 7Me-Lys Ac-Pen(1:3)-Phe 4 2ae(2:3)-Nal-THP-Lys Ac—N—H-Sar-am,"ring closure, yield after HPLC","amide bond, 24-membered ring, PyBOP/DIEA, DMF, 1.0 mM",50%
